In general, IC50 refers to the point on the concentration scale where inhibition reaches its midpoint.

Data on 20 molecules can be found in patent US20230265055A1, “STAT INIHIBITORY COMPOUNDS AND COMPOSITIONS” (JANPIX LIMITED, priority 2020, published 2023).

The test system of experiment [1] is MV4-11 cells. Kind of experiment: MV4-11 Cell Cytotoxicity Assay. It is filed as cell-based. The following applies: Homo sapiens, 72 h incubation, CellTiter-Blue, read-out: IC50-MV-4-11 (NS). The procedure: MV4-11 cells were grown in Iscove's Modified Dulbecco's Medium (IMDM) supplemented with 10% fetal bovine serum (FBS). 10,000 cells were plated per well in 96-well flat-bottom sterile culture plates with low-evaporation lids. After 24 h, inhibitors and a vehicle control (0.5% DMSO) were added and the cells were incubated for 72 h at 37° C. in 5% CO2. Inhibitors were examined in triplicate at a maximal concentration of 50 μM, followed by 1:2 dilutions in subsequent wells (25, 12.5, 6.25, 3.13, 1.56, 0.78, 0.39, 0.20 and 0.098 μM). After 72 h, the wells were treated with CellTiter-Blue® (20 μL/well), and the plates were incubated using standard cell culture conditions for 1 hour. Fluorescence was measured at 560/590 nm.
Background: The colour change of resazurin is a common sign of viable cells or microbes.

Experiment [2] deals with normal human fibroblast (NHF) cells. Kind of experiment: NHF Cell Cytotoxicity Assay. The experiment is classed as cell-based. The following applies: 72 hours, CellTiter-Blue, read-out: IC50—Pooled NHF. As to the method:
Cell viability was examined a following treatment at various concentrations of inhibitor (0.097656-50 μM) using a cell Titer-Blue cell viability assay. 1×10^4 normal human fibroblast cells per well were plated in 96-well assay plates in culture medium. All cells were grown in DMEM, IMDM and RPMI-1640 were supplemented with 10% FBS. After 24 hours, test compounds and vehicle controls were added to appropriate wells so the final volume was 100 μl in each well. The cells were cultured for the desired test exposure period (72 hours) at 37° C. and 5% CO2. The assay plates were removed from 37° C. incubator and 20 μL/well of CellTiter-Blue® Reagent was added. […] For each sample well, value was normalized between the DMSO control and the highest concentration in case of plateau and converted into a percentage. In the absence of plateau, minimum lecture is obtained from a different sample within the same experiment. For each concentration, the four replicates are averaged, and standard deviation calculated. Data was fitted to a log(inhibitor) vs response curve with variable slope model using Microsoft Excel, obtaining IC50 and Hill slope variables.
A person skilled in the art would appreciate that a higher IC50 value in this NHF assay can indicate lower off-target effects.

In the case of `CCOc1cc(C(=O)O)ccc1N(Cc1cc(C2CC2)cc(C2CC2)c1)C(=O)CN(Cc1cccc(F)c1F)S(=O)(=O)c1cc(F)c(F)c(F)c1F` [Compound 9, 4-[(3,5-dicyclopropylphenyl)methyl-[2-[(2,3-difluorophenyl)methyl-(2,3,4,5-tetrafluorophenyl)sulfonyl-amino]acetyl]amino]-3-ethoxy-benzoic acid], the IC50 in experiment [1] was 1200 to 6000 nM. Same read-out and setting: with `CCOc1cc(C(=O)O)ccc1N(Cc1cc(C2CC2)cc(C2CC2)c1)C(=O)CN(Cc1ccccc1F)S(=O)(=O)c1cc(F)c(F)c(F)c1F` [Compound 11, 4-[(3,5-dicyclopropylphenyl)methyl-[2-[(2-fluorophenyl)methyl-(2,3,4,5-tetrafluorophenyl)sulfonyl-amino]acetyl]amino]-3-ethoxy-benzoic acid] the figure was 1200 to 6000 nM.

Regarding `CCOc1cc(C(=O)O)ccc1N(Cc1cc(C2CC2)cc(C2CC2)c1)C(=O)CN(Cc1c(F)cc(F)cc1F)S(=O)(=O)c1cc(F)c(F)c(F)c1F` [Compound 12, 4-[(3,5-dicyclopropylphenyl)methyl-[2-[(2,3,4,5-tetrafluorophenyl)sulfonyl-[(2,4,6-trifluorophenyl)methyl]amino]acetyl]amino]-3-ethoxy-benzoic acid], the IC50 in experiment [1] fell in the range of 400 to 1200 nM. On to `CCOc1cc(C(=O)O)ccc1N(Cc1cc(C2CC2)cc(C2CC2)c1)C(=O)CN(Cc1ccccc1C(F)(F)F)S(=O)(=O)c1c(F)cc(F)c(F)c1F` [Compound 14, 4-[(3,5-dicyclopropylphenyl)methyl-[2-[(2,3,4,6-tetrafluorophenyl)sulfonyl-[[2-(trifluoromethyl)phenyl]methyl]amino]acetyl]amino]-3-ethoxy-benzoic acid], for which, in experiment [1], the IC50 lay in the range of 1200 to 6000 nM. `CCOc1cc(C(=O)O)ccc1N(Cc1cc(C2CC2)cc(C2CC2)c1)C(=O)CN(Cc1ccc(F)cc1Cl)S(=O)(=O)c1c(F)cc(F)c(F)c1F` [Compound 15, 4-[[2-[(2-chloro-4-fluoro-phenyl)methyl-(2,3,4,6-tetrafluorophenyl)sulfonyl-amino]acetyl]-[(3,5-dicyclopropylphenyl)methyl]amino]-3-ethoxy-benzoic acid]: in experiment [1], the IC50 lay in the range of 1200 to 6000 nM. In the case of `CCOc1cc(C(=O)O)c(F)cc1N(Cc1cc(C2CC2)cc(C2CC2)c1)C(=O)CN(Cc1ccccc1C#N)S(=O)(=O)c1cc(F)c(F)c(F)c1F` [Compound 18, 4-[[2-[(2-cyanophenyl)methyl-(2,3,4,5-tetrafluorophenyl)sulfonyl-amino]acetyl]-[(3,5-dicyclopropylphenyl)methyl]amino]-5-ethoxy-2-fluoro-benzoic acid], the IC50 is ≥ 24000 nM in experiment [2] and 400 to 1200 nM in experiment [1]. With `CCOc1cc(C(=O)O)c(F)cc1N(Cc1cc(C2CC2)cc(C2CC2)c1)C(=O)CN(Cc1ccccc1C#N)S(=O)(=O)c1c(F)cc(F)c(F)c1F` [Compound 19, 4-[[2-[(2-cyanophenyl)methyl-(2,3,4,6-tetrafluorophenyl)sulfonyl-amino]acetyl]-[(3,5-dicyclopropylphenyl)methyl]amino]-5-ethoxy-2-fluoro-benzoic acid], in experiment [1], the IC50 is 1200 to 6000 nM. In the case of `CCOc1cc(C(=O)O)ccc1N(Cc1cc(C2CC2)cc(C2CC2)c1)C(=O)CN(Cc1ccccc1C(F)(F)F)S(=O)(=O)c1c(Br)cc(F)c(F)c1F` [Compound 21, 4-[[2-[(6-bromo-2,3,4-trifluoro-phenyl)sulfonyl-[[2-(trifluoromethyl)phenyl]methyl]amino]acetyl]-[(3,5-dicyclopropylphenyl)methyl]amino]-3-ethoxy-benzoic acid], the figures for the IC50 in experiment [2] and in experiment [1] were ≥ 24000 nM and 1200 to 6000 nM, respectively. On to `CCOc1cc(C(=O)O)ccc1N(Cc1cc(C2CC2)cc(N2CCCC2)c1)C(=O)CN(Cc1ccccc1C#N)S(=O)(=O)c1cc(F)c(F)c(F)c1F` [Compound 22, 4-[[2-[(2-cyanophenyl)methyl-(2,3,4,5-tetrafluorophenyl)sulfonyl-amino]acetyl]-[(3-cyclopropyl-5-pyrrolidin-1-yl-phenyl)methyl]amino]-3-ethoxy-benzoic acid], for which, in experiment [1], the IC50 lay in the range of 400 to 1200 nM. The same measure, in the same setting: with `CCOc1cc(C(=O)O)ccc1N(Cc1cc(C2CC2)cc(N2CCCC2)c1)C(=O)CN(Cc1ccccc1C#N)S(=O)(=O)c1c(F)cc(F)c(F)c1F` [Compound 23, 4-[[2-[(2-cyanophenyl)methyl-(2,3,4,6-tetrafluorophenyl)sulfonyl-amino]acetyl]-[(3-cyclopropyl-5-pyrrolidin-1-yl-phenyl)methyl]amino]-3-ethoxy-benzoic acid] the figure was 1200 to 6000 nM; with `CCOc1cc(C(=O)O)ccc1N(Cc1cc(C2CC2)cc(C(C)(C)C)c1)C(=O)CN(Cc1ccccc1C#N)S(=O)(=O)c1c(F)cc(F)c(F)c1F` [Compound 25, 4-[(3-tert-butyl-5-cyclopropyl-phenyl)methyl-[2-[(2-cyanophenyl)methyl-(2,3,4,6-tetrafluorophenyl)sulfonyl-amino]acetyl]amino]-3-ethoxy-benzoic acid], 1200 to 6000 nM.

Consider `CCOc1cc(C(=O)O)ccc1N(Cc1cccc(N2CCCC2)c1)C(=O)CN(Cc1ccccc1C#N)S(=O)(=O)c1cc(F)c(F)c(F)c1F` [Compound 26, 4-[[2-[(2-cyanophenyl)methyl-(2,3,4,5-tetrafluorophenyl)sulfonyl-amino]acetyl]-[(3-pyrrolidin-1-ylphenyl)methyl]amino]-3-ethoxy-benzoic acid], for which the IC50 in experiment [1] fell in the range of 400 to 1200 nM.

Regarding `CCOc1cc(C(=O)O)ccc1N(Cc1cc(OC(C)C)cc(C2CC2)c1)C(=O)CN(Cc1ccccc1C#N)S(=O)(=O)c1cc(F)c(F)c(F)c1F` [Compound 32, 4-[[2-[(2-cyanophenyl)methyl-(2,3,4,5-tetrafluorophenyl)sulfonyl-amino]acetyl]-[(3-cyclopropyl-5-isopropoxy-phenyl)methyl]amino]-3-ethoxy-benzoic acid], in experiment [1], the IC50 was 1200 to 6000 nM. Still for that read-out and setting: the value for `CCOc1cc(C(=O)O)ccc1N(Cc1cccc(OC(C)C)c1)C(=O)CN(Cc1ccccc1C#N)S(=O)(=O)c1cc(F)c(F)c(F)c1F` [Compound 33, 4-[[2-[(2-cyanophenyl)methyl-(2,3,4,5-tetrafluorophenyl)sulfonyl-amino]acetyl]-[(3-isopropoxyphenyl)methyl]amino]-3-ethoxy-benzoic acid] was 1200 to 6000 nM. In the case of `CCOc1cc(C(=O)O)ccc1N(Cc1cc(C2CC2)cc(N2CCCC2)c1)C(=O)CN(Cc1ccccc1C#N)S(=O)(=O)c1c(Br)cc(F)c(F)c1F` [Compound 36, 4-[[2-[(6-bromo-2,3,4-trifluoro-phenyl)sulfonyl-[(2-cyanophenyl)methyl]amino]acetyl]-[(3-cyclopropyl-5-pyrrolidin-1-yl-phenyl)methyl]amino]-3-ethoxy-benzoic acid], the IC50 is ≥ 24000 nM in experiment [2] and 1200 to 6000 nM in experiment [1].

As for `COc1cc(C(=O)O)ccc1N(Cc1cc(C2CC2)cc(C(C)(C)C)c1)C(=O)CN(Cc1cnccc1C(F)(F)F)S(=O)(=O)c1c(F)c(F)cc(F)c1F` [Compound 46, 4-(N-(3-(tert-butyl)-5-cyclopropylbenzyl)-2-((2,3,5,6-tetrafluoro-N-((4-(trifluoromethyl)pyridin-3-yl)methyl)phenyl)sulfonamido)acetamido)-3-methoxy benzoic acid], the IC50 in experiment [1] is > 6000 nM.

Consider `CCOc1cc(C(=O)O)ccc1N(Cc1cc(C2CC2)cc(C2CC2)c1)C(=O)CNS(=O)(=O)c1cc(F)c(F)c(F)c1F` [Compound 47, 4-(N-(3,5-dicyclopropylbenzyl)-2-((2,3,4,5-tetrafluorophenyl)sulfonamido)acetamido)-3-ethoxy benzoic acid], for which the IC50 in experiment [1] is > 6000 nM. Same read-out and setting: with `CCOc1cc(C(=O)O)ccc1NC(=O)CN(Cc1ccccc1C#N)S(=O)(=O)c1cc(F)c(F)c(F)c1F` [Compound 48, 4-(2-((N-(2-cyanobenzyl)-2,3,4,5-tetrafluorophenyl)sulfonamido)acetamido)-3-ethoxy benzoic acid] the figure was 1200 to 6000 nM. As to `O=C(O)c1ccc(N(Cc2cc(C3CC3)cc(C3CC3)c2)C(=O)CN(Cc2ccccc2Cl)S(=O)(=O)c2c(F)c(F)c(F)c(F)c2Cl)c(O)c1` [Compound 73, 4-(2-((2-chloro-N-(2-chlorobenzyl)-3,4,5,6-tetrafluorophenyl)sulfonamido)-N-(3,5-dicyclopropylbenzyl)acetamido)-3-hydroxybenzoic acid], the IC50 in experiment [2] was ≥ 24000 nM; in experiment [1], 400 to 1200 nM. On the same counts, the results for `O=C(O)c1ccc(N(Cc2cc(C3CC3)cc(C3CC3)c2)C(=O)CN(Cc2ccccc2Cl)S(=O)(=O)c2c(F)c(F)c(F)c(F)c2Cl)cc1O` [Compound 76, 4-(2-((2-chloro-N-(2-chlorobenzyl)-3,4,5,6-tetrafluorophenyl)sulfonamido)-N-(3,5-dicyclopropylbenzyl)acetamido)-2-hydroxybenzoic acid] are ≥ 24000 nM and 1200 to 6000 nM.
